# From ChEMBL document CHEMBL1201862, “PubChem BioAssay data set” (2004)
#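 Dose response: 5 concentrations. Exposure: 48 h. Format: 96-well plates. Endpoint: linear interpolation; highest concentration if not reached. The concentration for 50% growth inhibition is given as GI50.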 The source made the active and inactive calls. No stated cut-off is given here; in the data, active = GI50 up to about 1.1 µM and inactive = higher.
# Legend:
# Assay in all cases: NCI tumour cell line growth inhibition, 48 h
# [1] = tested on: CCRF-CEM
# [2] = tested on: SK-MEL-2
# [3] = tested on: Malme-3M
# [4] = tested on: HCT-15
# [5] = tested on: SW-620
# [6] = tested on: HOP-62
# [7] = tested on: SK-MEL-28
# [8] = tested on: OVCAR-8
# [9] = tested on: SF-268
# [10] = tested on: NCI-H522
# [11] = tested on: CAKI-1
# [12] = tested on: SF-539
# [13] = tested on: HT-29
# [14] = tested on: HOP-92
# [15] = tested on: KM-20L2
# [16] = tested on: HCC 2998
# [17] = tested on: U-251
# [18] = tested on: OVCAR-3
# [19] = tested on: COLO 205
Structure (SMILES),GI50 [1],GI50 [2],GI50 [3],GI50 [4] [µM],GI50 [5],GI50 [6],GI50 [7],GI50 [8],GI50 [9],GI50 [10],GI50 [11],GI50 [12],GI50 [13],GI50 [14],GI50 [15],GI50 [16],GI50 [17],GI50 [18],GI50 [19]
Cc1nc(-n2nc(-c3ccccc3)cc2-c2ccccc2)sc1C(=O)/C=C/c1ccc(Cl)cc1,17.3 µM (inactive),19.6 µM (inactive),22.4 µM (inactive),22.2,21.5 µM (inactive),13.3 µM (inactive),16.9 µM (inactive),24.8 µM (inactive),29 µM (inactive),11.7 µM (inactive),17.5 µM (inactive),14.3 µM (inactive),14.4 µM (inactive),18.4 µM (inactive),24.4 µM (inactive),16.4 µM (inactive),15.8 µM (inactive),15.9 µM (inactive),16.5 µM (inactive)
CCCCCC1CC=CC(NC(=O)OCc2ccccc2)C1/C=C/CCCC1OCCO1 (stereo not given),47.5 µM (inactive),35.2 µM (inactive),50.6 µM (inactive),86.7,> 100 µM (inactive),> 100 µM (inactive),> 36.5 µM (inactive),73.6 µM (inactive),> 42.8 µM (inactive),20.8 µM (inactive),23.5 µM (inactive),> 100 µM (inactive),> 100 µM (inactive),> 45.7 µM (inactive),> 100 µM (inactive),78.3 µM (inactive),73.5 µM (inactive),38.5 µM (inactive),44.2 µM (inactive)
[N-]=[N+]=NC(c1cn(C2CC(O)C(CO)O2)c(=O)[nH]c1=O)C(I)I (stereo not given),> 100 µM (inactive),> 100 µM (inactive),> 100 µM (inactive),,> 100 µM (inactive),> 100 µM (inactive),> 100 µM (inactive),> 100 µM (inactive),56.1 µM (inactive),,> 100 µM (inactive),> 100 µM (inactive),> 100 µM (inactive),> 100 µM (inactive),> 100 µM (inactive),> 100 µM (inactive),> 100 µM (inactive),> 100 µM (inactive),> 100 µM (inactive)
C/C(=N\NC(=O)c1ccccc1O)C1=CNc2ccccc2S1,3.35 µM (inactive),2.15 µM (inactive),3.1 µM (inactive),,3.65 µM (inactive),4.59 µM (inactive),9.48 µM (inactive),3.7 µM (inactive),3.61 µM (inactive),3.34 µM (inactive),6.38 µM (inactive),2.4 µM (inactive),7.85 µM (inactive),,15.7 µM (inactive),2.98 µM (inactive),5.87 µM (inactive),3.01 µM (inactive),
Cn1ncc(=S)[nH]c1=S,> 100 µM (inactive),> 100 µM (inactive),> 100 µM (inactive),> 100,> 100 µM (inactive),> 100 µM (inactive),> 100 µM (inactive),> 100 µM (inactive),> 100 µM (inactive),> 100 µM (inactive),,> 100 µM (inactive),,> 100 µM (inactive),> 100 µM (inactive),,> 100 µM (inactive),> 100 µM (inactive),> 100 µM (inactive)
CCCCCn1cnc2c1S(=O)(=O)N(C)C(NC(=O)c1ccccc1)=N2,> 100 µM (inactive),> 100 µM (inactive),,> 100,> 100 µM (inactive),> 100 µM (inactive),> 100 µM (inactive),> 100 µM (inactive),> 100 µM (inactive),> 100 µM (inactive),> 100 µM (inactive),> 100 µM (inactive),> 100 µM (inactive),> 100 µM (inactive),> 100 µM (inactive),> 100 µM (inactive),> 100 µM (inactive),> 100 µM (inactive),> 100 µM (inactive)
CN(C)C(=N)NC(N)=S,,,> 100 µM (inactive),> 100,> 100 µM (inactive),> 100 µM (inactive),> 100 µM (inactive),> 100 µM (inactive),> 100 µM (inactive),> 100 µM (inactive),> 100 µM (inactive),> 100 µM (inactive),> 100 µM (inactive),> 100 µM (inactive),> 100 µM (inactive),> 100 µM (inactive),> 100 µM (inactive),> 100 µM (inactive),> 100 µM (inactive)
COc1ccc(N2C(=O)c3c(c4[nH]c5ccccc5c4c4ccc(C(C)(C)C)cc34)C2=O)cc1,21.3 µM (inactive),26.2 µM (inactive),83 µM (inactive),42.8,61.8 µM (inactive),42.8 µM (inactive),89.1 µM (inactive),22.5 µM (inactive),29.2 µM (inactive),33.2 µM (inactive),42 µM (inactive),> 100 µM (inactive),,14.7 µM (inactive),> 100 µM (inactive),> 100 µM (inactive),22.8 µM (inactive),27.2 µM (inactive),37.3 µM (inactive)
Cc1ccc(S(=O)(=O)NNS(C)(=O)=O)cc1,> 100 µM (inactive),> 100 µM (inactive),> 100 µM (inactive),> 100,> 100 µM (inactive),> 100 µM (inactive),,> 100 µM (inactive),> 100 µM (inactive),> 100 µM (inactive),> 100 µM (inactive),> 100 µM (inactive),> 100 µM (inactive),,> 100 µM (inactive),> 100 µM (inactive),> 100 µM (inactive),> 100 µM (inactive),> 100 µM (inactive)
CCOc1ccccc1NC(=O)CCc1n[nH]c(=S)o1,> 100 µM (inactive),> 100 µM (inactive),> 100 µM (inactive),,> 100 µM (inactive),,> 100 µM (inactive),,> 100 µM (inactive),> 100 µM (inactive),> 100 µM (inactive),> 100 µM (inactive),> 100 µM (inactive),> 100 µM (inactive),> 100 µM (inactive),,> 100 µM (inactive),> 100 µM (inactive),
Cc1cccc(-c2nnc(S)[nH]2)c1,> 100 µM (inactive),> 100 µM (inactive),> 100 µM (inactive),> 100,> 100 µM (inactive),> 100 µM (inactive),> 100 µM (inactive),> 100 µM (inactive),> 100 µM (inactive),> 100 µM (inactive),> 100 µM (inactive),> 100 µM (inactive),> 100 µM (inactive),> 100 µM (inactive),> 100 µM (inactive),> 100 µM (inactive),> 100 µM (inactive),> 100 µM (inactive),> 100 µM (inactive)
CC(=O)c1cccc(NC(=O)C(=O)NNc2nnc(S)n2N)c1,3.48 µM (inactive),3.06 µM (inactive),1.93 µM (inactive),4.9,7.73 µM (inactive),12.1 µM (inactive),6.89 µM (inactive),5.46 µM (inactive),9.62 µM (inactive),6.37 µM (inactive),17.3 µM (inactive),6.18 µM (inactive),9.4 µM (inactive),13.9 µM (inactive),14.1 µM (inactive),14.1 µM (inactive),3.57 µM (inactive),3.99 µM (inactive),14.2 µM (inactive)
C=CCOC1=C2CC[C@H](O)[C@@]2(C)CCC1=O,> 100 µM (inactive),,> 100 µM (inactive),> 100,> 100 µM (inactive),> 100 µM (inactive),> 100 µM (inactive),> 100 µM (inactive),> 100 µM (inactive),> 100 µM (inactive),> 100 µM (inactive),> 100 µM (inactive),> 100 µM (inactive),> 100 µM (inactive),> 100 µM (inactive),> 100 µM (inactive),> 100 µM (inactive),> 100 µM (inactive),> 100 µM (inactive)
O=S1(=O)c2ccccc2N=C(c2ccccc2Cl)CC1c1ccc(F)cc1 (stereo not given),14.1 µM (inactive),17.8 µM (inactive),20 µM (inactive),18.1,13.4 µM (inactive),> 10 µM (inactive),18.2 µM (inactive),21.5 µM (inactive),22.1 µM (inactive),13.6 µM (inactive),14.4 µM (inactive),20.3 µM (inactive),,17.7 µM (inactive),18.6 µM (inactive),14.2 µM (inactive),15.1 µM (inactive),14.3 µM (inactive),21.5 µM (inactive)
Cc1noc(C)c1C1=CCCCc2ccccc21,78.9 µM (inactive),> 100 µM (inactive),97.5 µM (inactive),99.8,> 100 µM (inactive),> 100 µM (inactive),> 100 µM (inactive),> 100 µM (inactive),> 100 µM (inactive),36.3 µM (inactive),,> 100 µM (inactive),> 100 µM (inactive),26.5 µM (inactive),> 100 µM (inactive),> 100 µM (inactive),> 100 µM (inactive),79.4 µM (inactive),> 100 µM (inactive)
CC1=Nn2c(nnc2-c2ccccc2Cl)NC(C)(C)C1,34.2 µM (inactive),> 100 µM (inactive),,51.9,6.25 µM (inactive),> 100 µM (inactive),> 100 µM (inactive),> 100 µM (inactive),> 100 µM (inactive),23.8 µM (inactive),> 100 µM (inactive),> 100 µM (inactive),> 100 µM (inactive),> 100 µM (inactive),> 100 µM (inactive),> 100 µM (inactive),81.7 µM (inactive),,54.2 µM (inactive)
